Measurements as given in US8436159B2, “Glyphosate resistant class I 5-endolpyruvylshikimate-3-phosphate synthase (EPSPS)” (Monsanto Technology LLC, priority 2003, dated 2013).
Substitutions are numbered along the chain they refer to.

Legend:
[1] = molecular target: T1, maize (Zea mays) class I EPSPS variant TIPC (T102I, P106C), pMON42485 (Zea mays, UniProt O24566, P106C/T102I); assay: EPSPS steady-state kinetics, TIPC variant
T1 sequence (O24566 1-444 T102I/P106C): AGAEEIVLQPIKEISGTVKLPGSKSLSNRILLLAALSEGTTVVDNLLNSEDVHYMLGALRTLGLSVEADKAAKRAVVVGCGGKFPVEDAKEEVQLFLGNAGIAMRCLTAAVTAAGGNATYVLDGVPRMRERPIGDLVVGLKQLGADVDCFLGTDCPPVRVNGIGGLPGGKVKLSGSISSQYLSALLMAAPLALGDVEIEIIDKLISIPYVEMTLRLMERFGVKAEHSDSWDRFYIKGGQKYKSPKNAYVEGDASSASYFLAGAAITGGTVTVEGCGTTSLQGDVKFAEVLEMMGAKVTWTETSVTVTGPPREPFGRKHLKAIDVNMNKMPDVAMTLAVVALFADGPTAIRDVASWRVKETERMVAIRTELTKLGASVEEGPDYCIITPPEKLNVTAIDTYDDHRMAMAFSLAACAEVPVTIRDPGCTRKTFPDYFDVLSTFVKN
Description: (§1) The double variants of the present invention were made using pMON58452 (FIG. 5) as the template. This pMON58452 EPSPS gene template contains the maize EPSPS double variant T102I, P106T (TIPT) that was constructed by mutagenesis of pMON70467 with the mutagenesis primers mEmut-9-U and mEmut-10-L. The various mutagenesis primer sequences were designed and then were synthesized by Invitrogen Corp., Custom Primers and used in combination in a PCR to create the variant EPSPS coding sequences. The PCR was set up in a 50 μl reaction in the following manner: dH2O 38 μl; 2 mM dNTP 1 μL; 10× buffer 5 μL; pMON58452 1 μL (10 ng); primer-U 2 μL; primer-L 2 μL; pfu Turbo enzyme 1 μL. PCR was carried out on a MJ Research PTC-200 thermal cycler using the following program: Step 1—94° C. for 30 seconds; Step 2—94° C. for 30 seconds; Step 3—55° C. for 1 minute; Step 4—68° C. for 14 minute; Step 5—go to step 2, 16 times; Step 6—End. At the end of the PCR, 1 μl of the restriction enzyme DpnI was added to each 50 μl of PCR reaction and the mixture was incubated at 37° C. for 1 hour. […]

[2] = molecular target: T2, maize (Zea mays) class I EPSPS variant TIPG (T102I, P106G), pMON42480 (Zea mays, UniProt O24566, P106G/T102I); assay: EPSPS steady-state kinetics, TIPG variant; format: biochemical
T2 construct: pMON42480
T2 sequence (O24566 1-444 T102I/P106G): T1 sequence (O24566 1-444 T102I/P106C) with C106G
Description: as §1

[3] = test system: E. coli EPSPS variant, alanine for the glycine at position 96 (G96A); details: glyphosate-resistant isolate; read-out: apparent Ki for glyphosate; cited from earlier work

O=C(O)CNCP(=O)(O)O [glyphosate, N-phosphonomethylglycine]
Ki [1]: 818 ± 74.4 µM | Ki [2]: 38.6 µM | Ki [3]: 4000 µM
